Reference: ChEMBL document CHEMBL3352525, “RET Kinase Inhibitors May Treat Cancer and Gastrointestinal Disorders” (ACS Med Chem Lett, 2015)

Columns and labels:
[1] = biological target: T1, Proto-oncogene tyrosine-protein kinase receptor Ret (Homo sapiens, UniProt P07949); experiment: Inhibition of human RET kinase cytoplasmic domain by Time-Resolved fluorescence reader assay
[2] = biological target: T1, Proto-oncogene tyrosine-protein kinase receptor Ret; experiment: Inhibition of human RET kinase in TT cells by TRET Kinase cell-based mechanistic assay

T1 sequence (P07949 whole entry, the tested form may be a part): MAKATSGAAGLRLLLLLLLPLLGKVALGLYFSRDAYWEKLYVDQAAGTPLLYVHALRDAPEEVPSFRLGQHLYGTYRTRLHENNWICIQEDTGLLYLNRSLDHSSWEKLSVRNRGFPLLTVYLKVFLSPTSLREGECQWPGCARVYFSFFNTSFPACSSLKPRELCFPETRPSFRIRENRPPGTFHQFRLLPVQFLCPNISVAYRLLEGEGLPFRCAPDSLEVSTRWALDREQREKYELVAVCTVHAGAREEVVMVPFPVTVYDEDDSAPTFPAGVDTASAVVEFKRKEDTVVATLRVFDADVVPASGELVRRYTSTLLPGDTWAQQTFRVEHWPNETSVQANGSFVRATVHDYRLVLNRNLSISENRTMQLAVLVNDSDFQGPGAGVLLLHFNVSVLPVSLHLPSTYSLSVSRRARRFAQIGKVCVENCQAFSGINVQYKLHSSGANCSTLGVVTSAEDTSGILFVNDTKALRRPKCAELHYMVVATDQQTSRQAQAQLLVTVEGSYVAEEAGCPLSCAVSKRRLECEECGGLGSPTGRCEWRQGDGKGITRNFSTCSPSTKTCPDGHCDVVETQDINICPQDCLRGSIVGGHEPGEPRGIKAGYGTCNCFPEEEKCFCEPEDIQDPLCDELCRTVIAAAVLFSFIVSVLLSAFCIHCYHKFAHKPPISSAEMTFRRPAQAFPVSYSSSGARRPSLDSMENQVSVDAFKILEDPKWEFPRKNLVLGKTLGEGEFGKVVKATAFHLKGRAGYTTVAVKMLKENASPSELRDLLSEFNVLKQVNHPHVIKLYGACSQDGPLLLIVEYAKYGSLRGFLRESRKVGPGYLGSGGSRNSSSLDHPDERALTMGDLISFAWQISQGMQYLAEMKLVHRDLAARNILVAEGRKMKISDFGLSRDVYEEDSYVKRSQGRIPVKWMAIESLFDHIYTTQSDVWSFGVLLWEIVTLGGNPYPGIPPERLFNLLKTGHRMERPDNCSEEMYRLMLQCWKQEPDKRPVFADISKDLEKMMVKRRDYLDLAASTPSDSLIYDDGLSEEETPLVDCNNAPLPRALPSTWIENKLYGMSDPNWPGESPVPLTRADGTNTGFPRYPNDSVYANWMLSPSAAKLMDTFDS

CCOc1cc(-c2ccc(CC(=O)Nc3ccc(Cl)c(Cl)c3)c(F)c2)c[nH]c1=O showed an IC50 [1] of no less than 100 nM and an IC50 [2] greater than 500 nM.
